According to patent publication US20050209278A1, “Piperidinyl- and piperazinyl-sulfonylmethyl hydroxamic acids and their use as protease inhibitors” (priority 2002, published 2005):
Where a name gives a salt, the structure may show the parent alone.

Columns and labels:
[1] = target: T1, MMP-2 (Homo sapiens, UniProt P08253); experiment: In vitro MMP inhibition, Ki determination (fluorogenic substrate II); assay type: biochemical; conditions: human recombinant enzyme; 4 μM substrate II; room temperature, 1 hr; read-out: MMP-2 Ki
T1 construct: made in house; host or cells: MMP-2-transfected p2AHT2 cells
T1 sequence (P08253 110-660): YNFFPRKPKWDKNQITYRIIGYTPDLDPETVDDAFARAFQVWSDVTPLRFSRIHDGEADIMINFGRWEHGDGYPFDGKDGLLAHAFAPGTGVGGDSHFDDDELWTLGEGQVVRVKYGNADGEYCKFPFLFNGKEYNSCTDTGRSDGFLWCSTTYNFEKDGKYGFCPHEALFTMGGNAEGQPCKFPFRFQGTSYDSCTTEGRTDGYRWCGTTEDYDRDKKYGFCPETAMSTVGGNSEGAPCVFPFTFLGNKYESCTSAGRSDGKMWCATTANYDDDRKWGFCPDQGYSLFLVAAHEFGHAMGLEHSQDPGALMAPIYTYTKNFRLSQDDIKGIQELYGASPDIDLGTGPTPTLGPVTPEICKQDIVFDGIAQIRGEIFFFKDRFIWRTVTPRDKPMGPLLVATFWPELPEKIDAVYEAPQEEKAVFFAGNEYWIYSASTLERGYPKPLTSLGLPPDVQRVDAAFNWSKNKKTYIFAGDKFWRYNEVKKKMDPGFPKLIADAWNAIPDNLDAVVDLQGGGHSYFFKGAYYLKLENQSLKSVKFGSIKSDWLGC
Description: (§1) Several hydroxamic acids and salts thereof were analyzed in in vitro assays to determine their ability to inhibit the MMP cleavage of peptide substrates. […] and IC50 constants were calculated from the assayed hydroxamic acid-MMP interactions.
(§2) Human recombinant MMP-1, MMP-2, MMP-9, MMP-13, and MMP-14 were used in this assay. All enzymes were prepared in Assignee's laboratories following usual laboratory procedures. Protocols for the preparation and use of these enzymes are available in the scientific literature. See, e.g., Enzyme Nomenclature (Academic Press, San Diego, Calif., 1992) (and the citations therein). See also, Freije et al., “Molecular cloning and expression of collagenase-3, a novel human matrix metalloproteinase produced by breast carcinomas,” J Biol. Chem., 269(24), 16766-16773 (1994).
The MMP-2 proenzyme was purified by gelatin Sepharose chromatography from MMP-2-transfected p2AHT2 cells provided by Dr. Gregory Goldberg of Washington University (St. Louis, Mo.).
(§3) All MMPs were activated using 4-aminophenylmercuric acetate (“APMA”, Sigma Chemical, St. Louis, Mo.) or trypsin. MMP-9 also was activated using human recombinant MMP-3 (purified in Assignee's laboratory following standard cloning and purification techniques).
(§4) Two fluorogenic, methoxycoumarin-containing polypeptide substrates were used in the MMP inhibition assays: [drawing 427] Here, “Dpa” is 3-(2,4-dinitrophenyl)-L-2,3-diaminopropionyl group, and “MCA” is 7-methoxycoumarin-4-yl acetyl. Substrate (I) was purchased from Baychem (Redwood City, Calif.), and substrate II was prepared Assignee's laboratory. Substrate I was used in the IC50 determination assays, while substrate II was used in the Ki determination assays. In the absence of MMP inhibitory activity, either substrate is cleaved at the Gly-Leu peptide bond. This cleavage separates the highly fluorogenic peptide from the 2,4-dinitrophenyl quencher, thus resulting in increase of fluorescent intensity.
(§5) The stock solutions of the assayed hydroxamic acids (or salts thereof) were prepared in 1% dimethyl sulfoxide (DMSO). These stock solutions were diluted in Buffer A (100 mM Tris-HCl, 100 mM NaCl, 10 mM CaCl2, 0.05% polyoxyethylene 23 lauryl ether, pH 7.5) to obtain solutions with different hydroxamic acid concentrations, i.e., assay solutions with different concentrations of the assayed MMP inhibitory compound. The experiment controls contained the same amount of Buffer A/DMSO as the assayed sample, but contained no hydroxamic acid (or salt thereof).
The assays from which the Ki determinations were made were performed as follows. The assayed hydroxamic acid samples were incubated in separate wells of untreated white polystyrene plates (Nunc Nalgene International, Rochester, N.Y.), and analyzed on a Tecan SpectraFlour Plus plate reader. The excitation wavelength was 330 nm, and the emission wavelength—420 nm. All samples (assayed hydroxamic acids and controls) were incubated in separate plate wells at room temperature for 1 hr in the presence of 4 μM of MMP substrate (II). In the absence of MMP inhibitory activity, substrate II was cleaved at the Gly-Leu bond resulting in an increase of relative fluorescence. Inhibition was observed as a reduced rate of this increase in relative fluorescence. The various hydroxamic acids were analyzed using a single low enzyme concentration with a single substrate concentration fixed at or below the Km. This protocol is a modification of method by Knight et al., FEBS Lett., 296(3), 263-266 (1992). Apparent inhibitory constants were determined by non-linear regression of reaction velocity as a function of inhibitor and enzyme concentration using Morrison's equation, as described by Kuzmic, Anal. Biochem. 286, 45-50 (2000). […] Since the substrate concentration was chosen to be at or below the Km, the apparent Ki's from this analysis were reported as Ki's without correction for the influence of substrate.

[2] = target: T2, MMP-14 (Homo sapiens, UniProt P50281); experiment: as above; assay type: biochemical; conditions: human recombinant enzyme (catalytic domain); 4 μM substrate II; room temperature, 1 hr; read-out: MMP-14 Ki
T2 construct: The catalytic domain enzyme was expressed in E. coli inclusion bodies, solubilized in urea; made in house
Description: as §1, §2
The MMP-14 full length cDNA was provided by Dr. Gregory Goldberg of Washington University (St. Louis, Mo.). The catalytic domain enzyme was expressed in E. coli inclusion bodies, solubilized in urea, purified on a preparative […] reverse phase HPLC column, and then refolded in the presence of zinc acetate and purified for use.
as §3, §4, §5
The assays from which the Ki determinations were made were performed as follows. The assayed hydroxamic acid samples were incubated in separate wells of untreated white polystyrene plates (Nunc Nalgene International, Rochester, N.Y.), and analyzed on a Tecan SpectraFlour Plus plate reader. The excitation wavelength was 330 nm, and the emission wavelength—420 nm. All samples (assayed hydroxamic acids and controls) were incubated in separate plate wells at room temperature for 1 hr in the presence of 4 μM of MMP substrate (II). In the absence of MMP inhibitory activity, substrate II was cleaved at the Gly-Leu bond resulting in an increase of relative fluorescence. Inhibition was observed as a reduced rate of this increase in relative fluorescence. The various hydroxamic acids were analyzed using a single low enzyme concentration with a single substrate concentration fixed at or below the Km. This protocol is a modification of method by Knight et al., FEBS Lett., 296(3), 263-266 (1992). Apparent inhibitory constants were determined by non-linear regression of reaction velocity as a function of inhibitor and enzyme concentration using Morrison's equation, as described by Kuzmic, Anal. Biochem. 286, 45-50 (2000).

Q: What does the source list for `CCCCc1cnc(N2CCN(S(=O)(=O)C3(C(=O)NO)CCOCC3)CC2)cn1` [Example 1, 4-{[4-(5-butylpyrazin-2-yl)piperazin-1-yl]sulfonyl}-N-hydroxytetrahydro-2H-pyran-4-carboxamide Dihydrochloride]?
A: Ki [1]: 1.52 nM; Ki [2]: 4290 nM

Q: `O=C(NO)C1(S(=O)(=O)N2CCN(c3ccc(OCC(F)(F)F)cc3)CC2)CCOCC1` [Example 2, N-hydroxy-4-({4-[4-(2,2,2-trifluoroethoxy)phenyl]piperazin-1-yl}sulfonyl)tetrahydro-2H-pyran-4-carboxamide Hydrochloride] was tested. Which Ki [1] did it give?
A: The Ki was 0.74 nM.

Q: What about the Ki [2] of the same compound?
A: Its Ki is 1940 nM.

Q: `CCOc1ccc(N2CCN(S(=O)(=O)C3(C(=O)NO)CCOCC3)CC2)cc1` [Example 3, 4-{[4-(4-ethoxyphenyl)piperazinyl]sulfonyl}perhydro-2H-pyran-4-carbohydroxamic Acid] was tested. Which Ki [1] did it give?
A: Its Ki is 0.59 nM.

Q: And the Ki [2]?
A: The Ki was 1260 nM.

Q: Which Ki [1] does the source give for `O=C(NO)C1(S(=O)(=O)N2CCN(c3ccc(OC(F)(F)C(F)F)cc3)CC2)CCOCC1` [Example 4, 4-({4-[4-(1,1,2,2-tetrafluoroethoxy)phenyl]piperazinyl}sulfonyl)perhydro-2H-pyran-4-carbohydroxamic Acid] here?
A: The Ki was 0.104 nM.

Q: What about the Ki [2] of the same compound?
A: The Ki was 954 nM.

Q: `CCCCc1ccc(N2CCN(S(=O)(=O)C3(C(=O)NO)CCN(CCOC)CC3)CC2)cc1` [Example 5, 4-{[4-(4-butylphenyl)piperazin-1-yl]sulfonyl}-N-hydroxy-1-(2-methoxyethyl)piperidine-4-carboxamide Dihydrochloride] was tested. Which Ki [1] did it give?
A: The Ki was 0.62 nM.

Q: And the Ki [2]?
A: The Ki was 1550 nM.

Q: `CCCCCc1ccc(N2CCN(S(=O)(=O)C3(C(=O)NO)CCN(CCOC)CC3)CC2)cc1` [Example 6, N-Hydroxy-1-(2-methoxyethyl)-4-{[4-(4-pentylphenyl)piperazin-1-yl]sulfonyl}piperidine-4-carboxamide Dihydrochloride] was tested. Which Ki [1] did it give?
A: Its Ki is 0.501 nM.

Q: What about the Ki [2] of the same compound?
A: Its Ki is 2300 nM.

Q: `O=C(NO)C1(S(=O)(=O)N2CCN(c3ccc(OCCCC(F)(F)F)cc3)CC2)CCOCC1` [Example 7, N-hydroxy-4-({4-[4-(4,4,4-trifluorobutoxy)phenyl]piperazin-1-yl}sulfonyl)tetrahydro-2H-pyran-4-carboxamide Hydrochloride] was tested. Which Ki [1] did it give?
A: The Ki was 0.497 nM.

Q: What about the Ki [2] of the same compound?
A: The Ki was 4330 nM.

Q: `COc1ccc(-c2cnc(N3CCN(S(=O)(=O)C4(C(=O)NO)CCOCC4)CC3)nc2)cc1` [Example 8, N-hydroxy-4-({4-[5-(4-methoxyphenyl)pyrimidin-2-yl]piperazin-1-yl}sulfonyl)tetrahydro-2H-pyran-4-carboxamide Hydrochloride] was tested. Which Ki [1] did it give?
A: Its Ki is 1.98 nM.

Q: And the Ki [2]?
A: The Ki was 468 nM.

Q: How did the Ki [1] turn out when `COCCN1CCC(C(=O)NO)(S(=O)(=O)N2CCN(c3ccc(OCCCC(F)(F)F)cc3)CC2)CC1` [Example 9, N-hydroxy-1-(2-methoxyethyl)-4-({4-[4-(4,4,4-trifluorobutoxy)phenyl]piperazin-1-yl}sulfonyl)piperidine-4-carboxamide Dihydrochloride] was run?
A: The Ki was 0.223 nM.

Q: What about the Ki [2] of the same compound?
A: The Ki was 5910 nM.

Q: What does the source list for `O=C(NO)C1(S(=O)(=O)N2CCN(c3ccc(OCC4CC4)c(F)c3)CC2)CCN(C2CC2)CC1` [Example 10, 1-cyclopropyl-4-[[4-[4-(cyclopropylmethoxy)-3-fluorophenyl]-1-piperazinyl]sulfonyl]-N-hydroxy-4-piperidinecarboxamide, dihydrochloride]?
A: Ki [1]: 0.52 nM; Ki [2]: 4340 nM

Q: How did the Ki [1] turn out when `CCCCOc1ccc(N2CCN(S(=O)(=O)C3(C(=O)NO)CCN(CCOC)CC3)CC2)cc1F` [Example 11, 4-[[4-(4-butoxy-3-fluorophenyl)-1-piperazinyl]sulfonyl]-N-hydroxy-1-(2-methoxyethyl)-4-piperidinecarboxamide, Dihydrochloride] was run?
A: Its Ki is 0.71 nM.

Q: And the Ki [2]?
A: The Ki was 3600 nM.

Q: `O=C(NO)C1(S(=O)(=O)N2CCN(c3ccc(-c4ccccc4)c(F)c3)CC2)CCOCC1` [Example 12, 4-{[4-(2-fluoro-1,1′-biphenyl-4-yl)piperazin-1-yl]sulfonyl}-N-hydroxytetrahydro-2H-pyran-4-carboxamide Hydrochloride] was tested. Which Ki [1] did it give?
A: The Ki was 0.18 nM.

Q: What about the Ki [2] of the same compound?
A: The Ki was 1710 nM.

Q: What does the source list for `CCCCCc1ccc(N2CCN(S(=O)(=O)C3(C(=O)NO)CCN(CCOC)CC3)CC2)cc1F` [Example 13, 4-{[4-(3-fluoro-4-pentylphenyl)piperazin-1-yl]sulfonyl}-N-hydroxy-1-(2-methoxyethyl)piperidine-4-carboxamide Dihydrochloride]?
A: Ki [1]: 0.549 nM; Ki [2]: 3520 nM

Q: Which results are given for `COCCOc1ccc(N2CCN(S(=O)(=O)C3(C(=O)NO)CCOCC3)CC2)cc1` [Example 14, N-hydroxy-4-({4-[4-(2-methoxyethoxy)phenyl]piperazin-1-yl}sulfonyl)tetrahydro-2H-pyran-4-carboxamide Hydrochloride]?
A: Ki [1]: 3.84 nM; Ki [2]: 9170 nM

Q: What does the source list for `CCCCCc1ccc(C2CCN(S(=O)(=O)C3(C(=O)NO)CCN(CCOC)CC3)CC2)cc1` [Example 15, N-hydroxy-1-(2-methoxyethyl)-4-{[4-(4-pentylpheyl)piperidin-1-yl]sulfonyl}piperidine-4-carboxamide Hydrochloride]?
A: Ki [1]: 0.89 nM; Ki [2]: 2960 nM

Q: Which Ki [1] does the source give for `CCCCOc1ccc(C2CCN(S(=O)(=O)C3(C(=O)NO)CCN(CCOC)CC3)CC2)cc1` [Example 16, 4-{[4-(4-butoxyphenyl)piperidin-1-yl]sulfonyl}-N-hydroxy-1-(2-methoxyethyl)piperidine-4-carboxamide Hydrochloride] here?
A: The Ki was 1.24 nM.

Q: And the Ki [2]?
A: Its Ki is 2930 nM.

Q: For `O=C(NO)C1(S(=O)(=O)N2CCN(c3ccc(CCC(F)(F)C(F)(F)F)cc3)CC2)CCOCC1` [Example 17, N-hydroxy-4-({4-[4-(3,3,4,4,4-pentafluorobutyl)phenyl]piperazin-1-yl}sulfonyl)tetrahydro-2H-pyran-4-carboxamide Hydrochloride], which Ki [1] is on record?
A: Its Ki is 0.418 nM.

Q: And the Ki [2]?
A: The Ki was 7970 nM.
